From patent publication US7781565B2 (priority 2006, dated 2010) come the findings set out here.

“Also recorded” adds a separate entry of the source.

The assay relates to NCI-60 cell lines. Format: cell-based, human.
On to SKYRLRS, for which the “Cell Line with which the peptide (and its tripeptide motif) is associated” value (“Cell Line with which the peptide” below) is recorded as “RPMI-8226-Leukemia”.

Regarding SLGGRTF, the “Cell Line (NCI-60 cell line the peptide is associated with)” value is listed as “SNB-75 CNS”.

Take SLGLGGL: the “Cell Line (NCI-60 cell line the peptide and its motif are associated with)” value was “OVCAR-5 Ovarian”.

As to SLGLRNQ, the “Cell Line with which the peptide” value is “CCRF-CEM Leukemia”.

As to SLGSVGS, the “Cell Line with which the peptide” value is given as “EKVX-Lung”.

As to SLLRRLE, the “Cell Line the peptide is associated with (peptide recovered from phage library selection on this NCI-60 cell line)” value was “TK-10 Renal”.

For the substance SLRGSEG, the “Cell Line with which the peptide” value was “Hop-92-Lung”.

For the substance SLRGVRV, the “Cell Line (NCI-60 cell line the peptide and its motif are associated with)” value is reported as “UACC62 Melanoma”.

SLRSDGA: the “Cell Line (NCI-60 cell line the peptide is associated with)” value was “HCT-15 Colon”.

On to SLRSGIV, for which the “Cell Line with which the peptide” value is recorded as “EKVX-Lung”.

Turning to SLTRAVR, the “Cell Line with which the peptide” value was “Hop-92-Lung”.

Take SLVSERA: the “Cell Line the peptide is associated with (peptide recovered from phage library selection on this NCI-60 cell line)” value was “HS 578 T Breast”.

Take SLVSPRT: the “Cell Line (NCI-60 cell line the peptide and its motif are associated with)” value is recorded as “OVCAR-5 Ovarian”.

Consider SLYGLRW, for which the “Cell Line (NCI-60 cell line the peptide and its motif are associated with)” value is recorded as “M14 Melanoma”.

For the substance SLYRGRL, the “Cell Line the peptide is associated with (peptide recovered from phage library selection on this NCI-60 cell line)” value was “T-47D Breast”.

As to SMRGVLS, the “Cell Line the peptide is associated with (peptide recovered from phage library selection on this NCI-60 cell line)” value is on record as “BT-549 Breast”.

In the case of SNARGPR, the “Cell Line with which the peptide” value is listed as “K-562-Leukemia”.

With SNFYGSS, the “Cell Line (NCI-60 cell line the peptide and its motif are associated with)” value was “M14 Melanoma”.

As to SNGLRVV, the “Cell Line the peptide is associated with (peptide recovered from phage library selection on this NCI-60 cell line)” value is recorded as “ACHN Renal”.

For SNHTASL, the “Cell Line (NCI-60 cell line the peptide is associated with)” value is listed as “SF-295 CNS”.

Consider SNPGSGS, for which the “Cell Line (NCI-60 cell line the peptide and its motif are associated with)” value was “UACC62 Melanoma”.

As for SPGRVAD, the “Cell Line (NCI-60 cell line the peptide and its motif are associated with)” value was “IGROV1 Ovarian”.

Take SPGVSGR: the “Cell Line (NCI-60 cell line the peptide is associated with)” value was “SW620-Colon”.

SPTGGRR: the “Cell Line (NCI-60 cell line the peptide is associated with)” value is on record as “LOX-IMVI Melanoma”.

As for SQFGPSF, the “Cell Line (NCI-60 cell line the peptide and its motif are associated with)” value is on record as “SK-OV-3-3 Ovarian”.

Regarding SQSGGRH, the “Cell Line with which the peptide” value is “Molt-4-Leukemia”.

For the substance SRASDVT, the “Cell Line (NCI-60 cell line the peptide is associated with)” value is on record as “SW620-Colon”.

As for SRASGHG, the “Cell Line (NCI-60 cell line the peptide is associated with)” value is listed as “HT-29 Colon”.

As for SRAVIDM, the “Cell Line with which the peptide” value is “CCRF-CEM Leukemia”.

Turning to SRAVIRL, the “Cell Line (NCI-60 cell line the peptide and its motif are associated with)” value was “OVCAR-5 Ovarian”.

Regarding SRFGPSV, the “Cell Line with which the peptide” value was “H322-Lung”.

On to SRFRVSI, for which the “Cell Line with which the peptide” value is listed as “CCRF-CEM Leukemia”.

Regarding SRGSTAG, the “Cell Line with which the peptide” value was “H322-Lung”.

With SRGSYGS, the “Cell Line the peptide is associated with (peptide recovered from phage library selection on this NCI-60 cell line)” value is reported as “MDA-MB-435-Breast”.

SRHGLVR: the “Cell Line (NCI-60 cell line the peptide is associated with)” value is listed as “HCT-15 Colon”.

For the substance SRKGLRS, the “Cell Line (NCI-60 cell line the peptide and its motif are associated with)” value is on record as 786-0 Renal.

In the case of SRLRAGS, the “Cell Line the peptide is associated with (peptide recovered from phage library selection on this NCI-60 cell line)” value was “T-47D Breast”.

Regarding SRLSYCN, the “Cell Line (NCI-60 cell line the peptide and its motif are associated with)” value was “OVCAR-4 Ovarian”.

As to SRLSYRA, the “Cell Line (NCI-60 cell line the peptide and its motif are associated with)” value is recorded as 786-0 Renal.

For the substance SRLSYRG, the “Cell Line with which the peptide” value is given as “RPMI-8226-Leukemia”.

Take SRLSYRS: the “Cell Line with which the peptide” value is reported as “A549-Lung”.

On to SRLSYRT, for which the “Cell Line the peptide is associated with (peptide recovered from phage library selection on this NCI-60 cell line)” value is on record as “TK-10 Renal”.

With SRLSYWQ, the “Cell Line (NCI-60 cell line the peptide is associated with)” value was “LOX-IMVI Melanoma”.

For SRLSYYA, the “Cell Line (NCI-60 cell line the peptide is associated with)” value was “KM-12C Colon”.

With SRSCGGL, the “Cell Line (NCI-60 cell line the peptide is associated with)” value was “LOX-IMVI Melanoma”.

For the substance SRSGRLN, the “Cell Line (NCI-60 cell line the peptide and its motif are associated with)” value is reported as “SK-MEL-2 Melanoma”.

Turning to SRVSFHE, the “Cell Line (NCI-60 cell line the peptide is associated with)” value is listed as “MALME-3M Melanoma”.

On to SRVSNPS, for which the “Cell Line (NCI-60 cell line the peptide and its motif are associated with)” value is listed as “SK-MEL-2 Melanoma”.

In the case of SRYGLRR, the “Cell Line with which the peptide” value is reported as “RPMI-8226-Leukemia”.

As for SRYGVLV, the “Cell Line with which the peptide” value is “EKVX-Lung”.

On to SRYSLRS, for which the “Cell Line with which the peptide” value was “A549-Lung”.

SRYTLRS: the “Cell Line (NCI-60 cell line the peptide and its motif are associated with)” value is “IGROV1 Ovarian”.

As to SRYWLRS, the “Cell Line with which the peptide” value was “H522-Lung”.

As to SSGGRSS, the “Cell Line (NCI-60 cell line the peptide is associated with)” value was “MALME-3M Melanoma”.

For the substance SSGGVLG, the “Cell Line with which the peptide” value is reported as “H460-Lung”.

As for SSGPRSS, the “Cell Line with which the peptide” value is “Hop-62-Lung”.

As to SSGSSNG, the “Cell Line with which the peptide” value is listed as “K-562-Leukemia”.

For the substance SSGSVDS, the “Cell Line with which the peptide” value is “H322-Lung”.

Regarding SSLLSSL, the “Cell Line (NCI-60 cell line the peptide and its motif are associated with)” value is on record as “SK-MEL-2 Melanoma”.

On to SSRGGSS, for which the “Cell Line (NCI-60 cell line the peptide is associated with)” value is “MALME-3M Melanoma”.

Turning to SSRMGLV, the “Cell Line with which the peptide” value is “SR Leukemia”.

Consider SSRPGSS, for which the “Cell Line with which the peptide” value is reported as “Hop-62-Lung”.

Regarding SSSLAGS, the “Cell Line the peptide is associated with (peptide recovered from phage library selection on this NCI-60 cell line)” value is given as “UO31 Renal”.

For the substance SSTRGVY, the “Cell Line (NCI-60 cell line the peptide is associated with)” value is “HT-29 Colon”.

With SSVASLV, the “Cell Line (NCI-60 cell line the peptide is associated with)” value is reported as “SNB-19 CNS; also recorded: SF-539 CNS”.

For the substance STEGGGL, the “Cell Line with which the peptide” value is recorded as “Molt-4-Leukemia”.

On to STSLGAG, for which the “Cell Line with which the peptide” value is recorded as “H322-Lung”.

Regarding SVDRGVI, the “Cell Line (NCI-60 cell line the peptide is associated with)” value was “LOX-IMVI Melanoma”.

Consider SVEGRGV, for which the “Cell Line with which the peptide” value is “A549-Lung”.

Regarding SVGAVGG, the “Cell Line with which the peptide” value is “A549-Lung”.

Take SVHLVSG: the “Cell Line the peptide is associated with (peptide recovered from phage library selection on this NCI-60 cell line)” value is “HS 578 T Breast”.

Consider SVLGGRL, for which the “Cell Line with which the peptide” value is “EKVX-Lung”.

For SVLGSSL, the “Cell Line with which the peptide” value is “H460-Lung”.

For SVRVGSG, the “Cell Line (NCI-60 cell line the peptide and its motif are associated with)” value is “SK-MEL-28 Melanoma”.

Consider SVSGAGS, for which the “Cell Line (NCI-60 cell line the peptide and its motif are associated with)” value is listed as “OVCAR-5 Ovarian”.

In the case of SVSRGRV, the “Cell Line the peptide is associated with (peptide recovered from phage library selection on this NCI-60 cell line)” value was “A498 Renal”.

Consider SVTGRVS, for which the “Cell Line (NCI-60 cell line the peptide and its motif are associated with)” value is 786-0 Renal.

Turning to SVTGSVG, the “Cell Line (NCI-60 cell line the peptide and its motif are associated with)” value is reported as “IGROV1 Ovarian”.

Take SVVGVST: the “Cell Line (NCI-60 cell line the peptide is associated with)” value is listed as “HCT-15 Colon”.

Consider SVVLAGS, for which the “Cell Line (NCI-60 cell line the peptide is associated with)” value is given as “LOX-IMVI Melanoma”.

Turning to SVVRRGS, the “Cell Line the peptide is associated with (peptide recovered from phage library selection on this NCI-60 cell line)” value is reported as “ACHN Renal”.

Turning to SVYALRS, the “Cell Line (NCI-60 cell line the peptide is associated with)” value is recorded as “COLO-205-Colon”.

SWAGVRF: the “Cell Line (NCI-60 cell line the peptide and its motif are associated with)” value was “OVCAR-5 Ovarian”.

For the substance SWGSGGS, the “Cell Line with which the peptide” value is “Hop-92-Lung”.

As for SWRPLVS, the “Cell Line with which the peptide” value was “Hop-62-Lung”.

For SYFRAGR, the “Cell Line with which the peptide” value was “H23-Lung”.

As for SYGLVLP, the “Cell Line with which the peptide” value is “Hop-92-Lung”.

Turning to SYMGAAS, the “Cell Line the peptide is associated with (peptide recovered from phage library selection on this NCI-60 cell line)” value is listed as “SN12C Renal”.

With SYWVGSS, the “Cell Line the peptide is associated with (peptide recovered from phage library selection on this NCI-60 cell line)” value was “MCF-7 Breast”.

On to TAAAVLL, for which the “Cell Line (NCI-60 cell line the peptide and its motif are associated with)” value is “OVCAR-5 Ovarian”.

For the substance TAAGSSF, the “Cell Line the peptide is associated with (peptide recovered from phage library selection on this NCI-60 cell line)” value is given as “HS 578 T Breast”.

For the substance TAGGAVG, the “Cell Line (NCI-60 cell line the peptide is associated with)” value was “SW620-Colon”.

Turning to TAGRLEV, the “Cell Line the peptide is associated with (peptide recovered from phage library selection on this NCI-60 cell line)” value is listed as “RXF393 Renal”.

On to TAGSSRL, for which the “Cell Line with which the peptide” value was “H322-Lung”.

Consider TATGGLL, for which the “Cell Line (NCI-60 cell line the peptide and its motif are associated with)” value is given as “OVCAR-8 Ovarian”.

For TCGGRSY, the “Cell Line (NCI-60 cell line the peptide and its motif are associated with)” value is recorded as “SK-MEL-2 Melanoma”.

For the substance TDGVRAF, the “Cell Line (NCI-60 cell line the peptide and its motif are associated with)” value is on record as “UACC 257 Melanoma”.

In the case of TDLAGLH, the “Cell Line with which the peptide” value was “RPMI-8226-Leukemia”.

Take TEGSVTV: the “Cell Line with which the peptide” value is listed as “HL-60-Leukemia”.

TEGTRGV: the “Cell Line the peptide is associated with (peptide recovered from phage library selection on this NCI-60 cell line)” value is on record as “RXF393 Renal”.

For TELVSWS, the “Cell Line with which the peptide” value is reported as “H322-Lung”.

With TFAGLAQ, the “Cell Line the peptide is associated with (peptide recovered from phage library selection on this NCI-60 cell line)” value is “BT-549 Breast”.

In the case of TFAGRSL, the “Cell Line (NCI-60 cell line the peptide and its motif are associated with)” value is listed as “A498 Renal”.

Regarding TFGKGGL, the “Cell Line with which the peptide” value is listed as “HL-60-Leukemia”.

With TFRGAGV, the “Cell Line the peptide is associated with (peptide recovered from phage library selection on this NCI-60 cell line)” value is given as “MDA-MB-231 Breast”.

As to TGFGAVG, the “Cell Line with which the peptide” value is reported as “HL-60-Leukemia”.

For TGGLHWY, the “Cell Line the peptide is associated with (peptide recovered from phage library selection on this NCI-60 cell line)” value was “TK-10 Renal”.

For TGGSLGA, the “Cell Line with which the peptide” value was “EKVX-Lung”.

Take TGGSLLG: the “Cell Line (NCI-60 cell line the peptide and its motif are associated with)” value is reported as “IGROV1 Ovarian”.

Take TGLLRLY: the “Cell Line the peptide is associated with (peptide recovered from phage library selection on this NCI-60 cell line)” value is recorded as “RXF393 Renal”.

For TGRLSAA, the “Cell Line (NCI-60 cell line the peptide and its motif are associated with)” value is listed as “UACC62 Melanoma”.

Consider TGRSSFW, for which the “Cell Line the peptide is associated with (peptide recovered from phage library selection on this NCI-60 cell line)” value is reported as “TK-10 Renal”.

Take TGRVVRR: the “Cell Line with which the peptide” value is recorded as “CCRF-CEM Leukemia”.

In the case of TGVRNSP, the “Cell Line the peptide is associated with (peptide recovered from phage library selection on this NCI-60 cell line)” value is recorded as “UO31 Renal”.
